PMC9599520, “The Membrane Activity of the Amphibian Temporin B Peptide Analog TB_KKG6K Sheds Light on the Mechanism That Kills Candida albicans” (mSphere, 2022)
Structures can show the parent of a compound that is named as a salt. Where two headings read alike, the source gives them in different places. Where no end group is shown, it is not given here.

Key:
[1] = system: C. albicans (CBS 5982); experiment: microbe, parasite or virus in culture; type: cell-based, Candida albicans; settings: for IC90: Candida albicans, CBS5982, 24 h, 0.05× PDB, 30°C, 24 h, OD620, read-out: IC90 (inhibitory concentration that reduced growth by ≥90%)
[2] = system: C. albicans cells; experiment: Uptake mechanism (fluorescence microscopy, 4°C or CCCP); type: cell-based, Candida albicans; settings: 2 μM
[3] = Vesicle leakage assay, PC-PE-ergosterol; type: biochemical; settings: PC-PE-ergosterol-LUVs; 32 μM peptide (1.5:1), negative control; 50 μM lipid, 30 min, 37°C; mean ± SD
[4] = Vesicle leakage assay, PC-CL; type: biochemical; settings: PC-CL-LUVs; 32 μM peptide (1.5:1), negative control; 50 μM lipid, 30 min, 37°C; mean ± SD
[5] = system: C. albicans cell membrane; experiment: Membrane depolarization assay with DiSC3(5) dye; type: cell-based, Candida albicans; settings: 1 × 10^6 cells/mL, 30°C, 60 min, PCγ^C-terminal 32 μM
[6] = Vesicle leakage assay, PG-PE-CL; type: biochemical; settings: PG-PE-CL-LUVs; 32 μM peptide (1.5:1), negative control; 50 μM lipid, 30 min, 37°C; mean ± SD
[7] = Vesicle leakage assay, PC; type: biochemical; settings: PC-LUVs; 32 μM peptide (1.5:1), negative control; 50 μM lipid, 30 min, 37°C; mean ± SD
[8] = Vesicle leakage assay, PG; type: biochemical; settings: PG-LUVs; 32 μM peptide (1.5:1), negative control; 50 μM lipid, 30 min, 37°C; mean ± SD
[9] = Vesicle leakage assay, PC-ceramide; type: biochemical; settings: PC-ceramide-LUVs; 32 μM peptide (1.5:1), negative control; 50 μM lipid, 30 min, 37°C; mean ± SD
[10] = Vesicle leakage assay, PC-PE; type: biochemical; settings: PC-PE-LUVs; 32 μM peptide (1.5:1), negative control; 50 μM lipid, 30 min, 37°C; mean ± SD
[11] = Vesicle leakage assay, PC-PS-ergosterol; type: biochemical; settings: PC-PS-ergosterol-LUVs; 32 μM peptide (1.5:1), negative control; 50 μM lipid, 30 min, 37°C; mean ± SD
[12] = Vesicle leakage assay (ANTS-DPX), all LUVs; type: biochemical; settings: 32 μM peptide, negative control, 1% Triton X-100 = 100%
[13] = Vesicle leakage assay, PC-sphingomyelin; type: biochemical; settings: PC-sphingomyelin-LUVs; 32 μM peptide (1.5:1), negative control; 50 μM lipid, 30 min, 37°C; mean ± SD
[14] = Vesicle leakage assay, PC-PI; type: biochemical; settings: PC-PI-LUVs; 32 μM peptide (1.5:1), negative control; 50 μM lipid, 30 min, 37°C; mean ± SD
[15] = Vesicle leakage assay, PC-ergosterol; type: biochemical; settings: PC-ergosterol-LUVs; 32 μM peptide (1.5:1), negative control; 50 μM lipid, 30 min, 37°C; mean ± SD
[16] = Vesicle leakage assay, PC-PS; type: biochemical; settings: PC-PS-LUVs; 32 μM peptide (1.5:1), negative control; 50 μM lipid, 30 min, 37°C; mean ± SD
[17] = cited from earlier work

Question: For `CCCCCCCCN=c1ccn(CCCCCCCCCCn2ccc(=NCCCCCCCC)cc2)cc1` [Octenidine, N,N′-(1,10 decanediyldi-1[4H]-pyridinyl-4-ylidene)-bis-(1-octanamine) dihydrochloride], which IC90 ([1]; 1 × 10^4 cells/mL) is on record?
Answer: 1000 nM

Question: What about the IC90 ([1]; 1 × 10^6 cells/mL) of the same compound?
Answer: 2000 nM

Question: Which “uptake into C. albicans cells” value ([2]; 30°C, standard condition, 45 min for BODIPY-PAFB) does the source give for “BODIPY-PAFB: P. chrysogenum antifungal protein B (PAFB) conjugated with the green fluorophore BODIPY; control for energy-dependent uptake (LSKFGGECSLKHNTCTYLKGGKNHVVNCGSAANKKCKSDRHHCEYDEHHKRVDCQTPV; cysteine pairing not given here; also: BODIPY label, position not given here; UniProt D0EXD3 35-92, looked up)” here?
Answer: taken up by C. albicans

Question: And the “uptake into C. albicans cells with reduced respiration and metabolism” value ([2]; 4°C, or 30°C with 100 μM CCCP, 15 min (FITC-TB_KKG6K), 45 min (BODIPY-PAFB))?
Answer: no internalization

Question: With “CGGASCRG [PCγ^C-terminal, negative control peptide CGGASCRG derived from the C-terminal part of Penicillium chrysogenum antifungal protein C (PAFC), reference compound]” as the compound, how does the “% Leakage” value [3] read?
Answer: 1.7 ± 2.0%

Question: And the fungal growth inhibition ([1]; peptide concentration 0 to 32 μM)?
Answer: No fungal growth inhibition

Question: What about the “% Leakage” value [4] of the same compound?
Answer: 0.7 ± 0.4%

Question: What about the “membrane depolarization, DiSC3(5) fluorescence intensity” value ([5]; TB analog 0.5, 1, 2 μM, Triton X-100 1% (wt/vol)) of the same compound?
Answer: No membrane depolarization

Question: What about the “% Leakage” value [6] of the same compound?
Answer: −1.2 ± 1.6%

Question: And the “% Leakage” value [7]?
Answer: 1.4 ± 1.4%

Question: What about the “% Leakage” value [8] of the same compound?
Answer: 1.9 ± 1%

Question: What about the “% Leakage” value [9] of the same compound?
Answer: 1.3 ± 0.2%

Question: What about the “% Leakage” value [10] of the same compound?
Answer: 1.4 ± 0.6%

Question: And the “% Leakage” value [11]?
Answer: 2.0 ± 1.4%

Question: What about the “% Leakage” value [12] of the same compound?
Answer: ≤ 2%

Question: What about the “% Leakage” value [13] of the same compound?
Answer: 0.6 ± 0.8%

Question: And the “% Leakage” value [14]?
Answer: 0.4 ± 0.5%

Question: And the “% Leakage” value [15]?
Answer: 1.1 ± 0.9%

Question: And the “% Leakage” value [16]?
Answer: 0.9 ± 2.7%

Question: With Temporin B [reference compound] as the compound, how does the “hydrophobicity (hydrophobic amino acids)” value [17] read?
Answer: 61%

Question: What about the positive net charge ([17]; pH 7) of the same compound?
Answer: +0.9

Question: With Triton X-100 [reference compound] as the compound, how does the “membrane depolarization, DiSC3(5) fluorescence intensity” value ([5]; […]) read?
Answer: fast and sustained increase in fluorescence intensity
